A value given as a limit tells only on which side of the number the result lay.

The target of one assay is T1, full length AKT E17K (Homo sapiens, UniProt P31749, E17K).
T1 construct: host or cells: HEK-293 (ATCC CRL-1573)
T1 sequence (P31749 whole entry E17K): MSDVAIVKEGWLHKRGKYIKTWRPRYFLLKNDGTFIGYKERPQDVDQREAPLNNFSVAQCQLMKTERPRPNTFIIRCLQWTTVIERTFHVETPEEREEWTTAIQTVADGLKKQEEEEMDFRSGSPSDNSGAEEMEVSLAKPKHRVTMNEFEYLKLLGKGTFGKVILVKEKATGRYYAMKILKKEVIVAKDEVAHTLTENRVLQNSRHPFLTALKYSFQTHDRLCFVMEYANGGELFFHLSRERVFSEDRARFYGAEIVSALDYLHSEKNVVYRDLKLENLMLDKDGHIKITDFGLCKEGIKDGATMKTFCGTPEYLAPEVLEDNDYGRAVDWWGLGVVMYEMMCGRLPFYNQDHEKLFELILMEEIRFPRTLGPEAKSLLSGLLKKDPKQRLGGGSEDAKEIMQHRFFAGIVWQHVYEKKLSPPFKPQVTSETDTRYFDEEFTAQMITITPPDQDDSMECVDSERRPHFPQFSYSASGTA
The assay is described as follows: NanoBRET Target Engagement (TE) Assay. The format is cell-based. Conditions: competitive displacement of tracer in cells, read-out: AKT1 E17K IC50. In short, it runs like this:
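Compound and tracer incubated 2 h before luminescence at donor 450 nm and acceptor 600 nm, with extracellular signal inhibited. EC50 by sigmoidal variable-slope regression.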
In general, IC50 refers to the concentration at which inhibition is half-maximal. `[2H]C([2H])([2H])N(c1ccc2nc(-c3cccnc3N)n(-c3ccc(CN4CCC(Nc5ccnc(C#N)n5)CC4)cc3)c2n1)C([2H])([2H])[2H]` [Example 458, 4-((1-(4-(2-(2-Aminopyridin-3-yl)-5-(bis(methyl-d3)amino)-3H-imidazo[4,5-b]pyridin-3-yl)benzyl)piperidin-4-yl)amino)pyrimidine-2-carbonitrile]: the IC50 is < 15 nM.

Consider `N#Cc1nccc(NC2CCN(Cc3ccc(-n4c(-c5cccnc5N)nc5ccc(-c6ccc(OC(F)F)nc6)nc54)cc3)CC2)n1` [Example 542, 4-((1-(4-(2-(2-Aminopyridin-3-yl)-5-(6-(difluoromethoxy)pyridin-3-yl)-3H-imidazo[4,5-b]pyridin-3-yl)benzyl)piperidin-4-yl)amino)pyrimidine-2-carbonitrile], for which the half-maximal inhibitory concentration (IC50) is < 15 nM. On the same count and under the same terms, with `CC(C)C(=O)Nc1cccc(-c2ccc3nc(-c4cccnc4N)n(-c4ccc(CN5CCC(Nc6ccnc(C#N)n6)CC5)cc4)c3n2)c1` [Example 518, N-(3-(2-(2-Aminopyridin-3-yl)-3-(4-((4-((2-cyanopyrimidin-4-yl)amino)piperidin-1-yl)methyl)phenyl)-3H-imidazo[4,5-b]pyridin-5-yl)phenyl)isobutyramide] the figure was < 15 nM; with `COc1cnc(-c2ccc3nc(-c4cccnc4N)n(-c4ccc(CN5CCC(Nc6ccnc(C#N)n6)CC5)cc4)c3n2)nc1` [Example 581, 4-((1-(4-(2-(2-Aminopyridin-3-yl)-5-(5-methoxypyrimidin-2-yl)-3H-imidazo[4,5-b]pyridin-3-yl)benzyl)piperidin-4-yl)amino)pyrimidine-2-carbonitrile], 15 to 60 nM. Still for that read-out and setting: the value for `N#Cc1nccc(NC2CCN(Cc3ccc(-n4c(-c5nccnc5N)nc5ccc(-c6cnn(C7CC7)n6)nc54)cc3)CC2)n1` [Example 631, 4-((1-(4-(2-(3-Aminopyrazin-2-yl)-5-(2-cyclopropyl-2H-1,2,3-triazol-4-yl)-3H-imidazo[4,5-b]pyridin-3-yl)benzyl)piperidin-4-yl)amino)pyrimidine-2-carbonitrile] was < 15 nM; that for `N#Cc1ccnc(-c2ccc3nc(-c4cccnc4N)n(-c4ccc(CN5CCC(Nc6ccnc(C#N)n6)CC5)cc4)c3n2)c1` [Example 548, 4-((1-(4-(2-(2-Aminopyridin-3-yl)-5-(4-cyanopyridin-2-yl)-3H-imidazo[4,5-b]pyridin-3-yl)benzyl)piperidin-4-yl)amino)pyrimidine-2-carbonitrile] was < 15 nM; that for `[2H]C([2H])([2H])Oc1ccc(-c2ccc3nc(-c4cccnc4N)n(-c4ccc(CN5CCC(Nc6ccnc(C#N)n6)CC5)cc4)c3n2)nc1` [Example 578, 4-((1-(4-(2-(2-Aminopyridin-3-yl)-5-(5-(methoxy-d)pyridin-2-yl)-3H-imidazo[4,5-b]pyridin-3-yl)benzyl)piperidin-4-yl)amino)pyrimidine-2-carbonitrile] was < 15 nM. For the compound `N#Cc1nccc(NC2CCN(Cc3ccc(-n4c(-c5cccnc5N)nc5ccc(-n6cncn6)nc54)cc3)CC2)n1` [Example 590, 4-((1-(4-(2-(2-Aminopyridin-3-yl)-5-(1H-1,2,4-triazol-1-yl)-3H-imidazo[4,5-b]pyridin-3-yl)benzyl)piperidin-4-yl)amino)pyrimidine-2-carbonitrile], the IC50 is < 15 nM. The same measure, in the same setting: the value for `CN(C)c1ccc2nc(-c3cccnc3N)n(-c3ccc(CN4CCC(Nc5ccnc(C#N)n5)CC4)cc3)c2n1` [Example 389, 4-((1-(4-(2-(2-Aminopyridin-3-yl)-5-(dimethylamino)-3H-imidazo[4,5-b]pyridin-3-yl)benzyl)piperidin-4-yl)amino)pyrimidine-2-carbonitrile] was < 15 nM. The same measure, in the same setting: the value for `N#Cc1nccc(NC2CCN(Cc3ccc(-n4c(-c5cccnc5N)nc5cc(F)cnc54)cc3)CC2)n1` [Example 402, 4-((1-(4-(2-(2-Aminopyridin-3-yl)-6-fluoro-3H-imidazo[4,5-b]pyridin-3-yl)benzyl)piperidin-4-yl)amino)pyrimidine-2-carbonitrile] was < 15 nM; that for `CC(C)n1ncc(-c2ccc3nc(-c4cccnc4N)n(-c4ccc(CN5CCC(Nc6ccnc(C#N)n6)CC5)cc4)c3n2)n1` [Example 610, 4-((1-(4-(2-(2-Aminopyridin-3-yl)-5-(2-isopropyl-2H-1,2,3-triazol-4-yl)-3H-imidazo[4,5-b]pyridin-3-yl)benzyl)piperidin-4-yl)amino)pyrimidine-2-carbonitrile] was < 15 nM; that for `N#Cc1cc(N2CCN(Cc3ccc(-n4c(-c5cccnc5N)nc5ccc(-c6cccc(Cl)c6)nc54)cc3)CC2)ncn1` [Example 374, 6-(4-(4-(2-(2-Aminopyridin-3-yl)-5-(3-chlorophenyl)-3H-imidazo[4,5-b]pyridin-3-yl)benzyl)piperazin-1-yl)pyrimidine-4-carbonitrile] was 15 to 60 nM.

For `CN1CCN(c2ccc3nc(-c4cccnc4N)n(-c4ccc(CN5CCN(c6ccnc(C#N)n6)CC5)cc4)c3n2)CCC1=O` [Example 345, 4-(4-(4-(2-(2-Aminopyridin-3-yl)-5-(4-methyl-5-oxo-1,4-diazepan-1-yl)-3H-imidazo[4,5-b]pyridin-3-yl)benzyl)piperazin-1-yl)pyrimidine-2-carbonitrile], the half-inhibitory concentration (IC50) is 60 to 600 nM. Still for that read-out and setting: with `N#Cc1nccc(NC2CCN(Cc3ccc(-n4c(-c5c(F)ccnc5N)nc5ccc(-c6ccc(F)cn6)nc54)cc3)CC2)n1` [Example 600, 4-((1-(4-(2-(2-Amino-4-fluoropyridin-3-yl)-5-(5-fluoropyridin-2-yl)-3H-imidazo[4,5-b]pyridin-3-yl)benzyl)piperidin-4-yl)amino)pyrimidine-2-carbonitrile] the figure was 15 to 60 nM. On the same count and under the same terms, the value for `N#Cc1nccc(NC2CCN(Cc3ccc(-n4c(-c5cccnc5N)nc5ncccc54)cc3)CC2)n1` [Example 533, 4-((1-(4-(2-(2-Aminopyridin-3-yl)-1H-imidazo[4,5-b]pyridin-1-yl)benzyl)piperidin-4-yl)amino)pyrimidine-2-carbonitrile] was 60 to 600 nM.

Staying with this assay, now noted: competitive tracer displacement in living cells, read-out: AKT1 E17K IC50.
For `N#Cc1cncc(N2CCN(Cc3ccc(-n4c(-c5cccnc5N)nc5ccc(-c6ccccc6)nc54)cc3)CC2)n1` [Example 67, 6-(4-(4-(2-(2-Aminopyridin-3-yl)-5-phenyl-3H-imidazo[4,5-b]pyridin-3-yl)benzyl)piperazin-1-yl)pyrazine-2-carbonitrile], the IC50 was 60 to 600 nM. The same measure, in the same setting: the value for `N#Cc1cc(N2CCCN(Cc3ccc(-n4c(-c5cccnc5N)nc5ccc(-c6ccccc6)nc54)cc3)CC2)ncn1` [Example 215, 6-(4-(4-(2-(2-aminopyridin-3-yl)-5-phenyl-3H-imidazo[4,5-b]pyridin-3-yl)benzyl)-1,4-diazepan-1-yl)pyrimidine-4-carbonitrile] was < 15 nM; that for `N#Cc1nccc(N2CC3CCC2CN3Cc2ccc(-n3c(-c4cccnc4N)nc4ccc(-c5ccccc5)nc43)cc2)n1` (centres unmarked) [Example 219, 4-(5-(4-(2-(2-Aminopyridin-3-yl)-5-phenyl-3H-imidazo[4,5-b]pyridin-3-yl)benzyl)-2,5-diazabicyclo[2.2.2]octan-2-yl)pyrimidine-2-carbonitrile] was < 15 nM. Same read-out and setting: the value for `N#Cc1cc(N2CCN(Cc3ccc(-n4c(-c5cccnc5N)nc5ccc(-c6ccccc6)nc54)cc3)CC2)ccn1` [Example 82, 4-(4-(4-(2-(2-Aminopyridin-3-yl)-5-phenyl-3H-imidazo[4,5-b]pyridin-3-yl)benzyl)piperazin-1-yl)picolinonitrile] was 15 to 60 nM; that for `N#Cc1cncc(C(=O)N2CCN(Cc3ccc(-n4c(-c5cccnc5N)nc5cccnc54)cc3)CC2)c1` [Example 79, 5-(4-(4-(2-(2-Aminopyridin-3-yl)-3H-imidazo[4,5-b]pyridin-3-yl)benzyl)piperazine-1-carbonyl)nicotinonitrile] was 600 to 10000 nM. With `N#Cc1ncccc1C(=O)N1CCN(Cc2ccc(-n3c(-c4cccnc4N)nc4cccnc43)cc2)CC1` [Example 153, 3-(4-(4-(2-(2-Aminopyridin-3-yl)-3H-imidazo[4,5-b]pyridin-3-yl)benzyl)piperazine-1-carbonyl)picolinonitrile], the IC50 lay within 600 to 10000 nM. On the same count and under the same terms, with `N#Cc1ccc(C(=O)N2CCN(Cc3ccc(-n4c(-c5cccnc5N)nc5cccnc54)cc3)CC2)cn1` [Example 102, 5-(4-(4-(2-(2-Aminopyridin-3-yl)-3H-imidazo[4,5-b]pyridin-3-yl)benzyl)piperazine-1-carbonyl)picolinonitrile] the figure was 600 to 10000 nM; with `N#Cc1ccnc(N2CCN(Cc3ccc(-n4c(-c5cccnc5N)nc5ccc(N6CCOCC6)nc54)cc3)CC2)n1` [Example 236, 2-(4-(4-(2-(2-Aminopyridin-3-yl)-5-morpholino-3H-imidazo[4,5-b]pyridin-3-yl)benzyl)piperazin-1-yl)pyrimidine-4-carbonitrile], 15 to 60 nM. Same read-out and setting: the value for `N#Cc1ccnc(NC2C3CCC2CN(Cc2ccc(-n4c(-c5cccnc5N)nc5ccc(-c6ccccc6)nc54)cc2)C3)n1` (centres unmarked) [Example 231, 2-((3-(4-(2-(2-Aminopyridin-3-yl)-5-phenyl-3H-imidazo[4,5-b]pyridin-3-yl)benzyl)-3-azabicyclo[3.2.1]octan-8-yl)amino)pyrimidine-4-carbonitrile] was 600 to 10000 nM. Same read-out and setting: the value for `N#Cc1ccc(C(=O)NC2CCN(Cc3ccc(-n4c(-c5cccnc5N)nc5cc(-c6ccccc6)cnc54)cc3)CC2)cn1` [Example 165, N-(1-(4-(2-(2-aminopyridin-3-yl)-6-phenyl-3H-imidazo[4,5-b]pyridin-3-yl)benzyl)piperidin-4-yl)-6-cyanonicotinamide] was 600 to 10000 nM; that for `N#Cc1nccc(NC2CCN(Cc3ccc(-n4c(-c5cccnc5N)nc5ccc(-c6ccc(=O)[nH]c6)nc54)cc3)CC2)n1` [Example 266, 4-((1-(4-(2-(2-Aminopyridin-3-yl)-5-(6-oxo-1,6-dihydropyridin-3-yl)-3H-imidazo[4,5-b]pyridin-3-yl)benzyl)piperidin-4-yl)amino)pyrimidine-2-carbonitrile] was 60 to 600 nM.

These data come from US12209087B2, “AKT1 modulators” (Alterome Therapeutics, Inc., priority 2022, dated 2025).
